Legend:
[1] = Serum 17β-estradiol measured by RIA in Tg mice; format: in vivo; conditions: 0.36 mg pellet
Experimental: Androgen and estrogen detection. Mice were bled by cardiac puncture and the blood was allowed to clot at 4° C. overnight. The samples were centrifuged, and the sera collected and stored at −80° C. until hormone analysis was performed. Serum levels of estrogen were determined by radioimmunoassay (RIA) after Sephadex LH-20 column chromatography, as described in Roselli et al., Endocrine 64:139 (1996). All samples were analyzed in a single assay.
17β-estradiol treatment. For 17β-estradiol hormone therapy, 3-mm pellets containing 0.36 mg of 17β-estradiol (Innovative Research of America, Sarasota, Fla.), expected to provide physiological equivalence of the estrus cycle (150-200 pg/ml in serum) over 60 days, were implanted s.c. on the animal's back 7 days before induction of EAE. […] The 17β-estradiol pellets provide continuous controlled release of a constant level of hormone over a period of 60 days. Serum concentrations of 17β-estradiol were evaluated in representative mice from each group. Sham treated mice had variable levels of 17β-estradiol that reflected both estrus and diestrus mice (ranging from about 20 to 200 pg/ml, on average about 50 pg/ml). […] E2-treated intact mice were also variable (about 200-400 pg/ml), reflecting the combination of native estrus/diestrus levels plus the exogenous estradiol from the pellet, whereas the E2-treated OVX mice were somewhat lower (about 150-200 pg/ml).

splenic T cells = test: Splenic T cell proliferation and cytokine responses of treated Tg mice with EAE; format: in vivo; conditions: 0.36 mg pellet, average
Experimental: Proliferation assay. Spleens (SPL) were removed surgically, and single cell suspensions were prepared. Proliferative responses of T cells were determined in 96-well microtiter plates by incubating 4×10^5 spleen cells plus antigen at an optimal concentration of 20 μg/well. Cultures were incubated for 72 hr at 37° C. and 7% CO2, the last 18 hr in the presence of 0.5 μCi ^3H-thymidine. Cells were harvested onto glass fiber filters, and thymidine uptake was determined by liquid scintillation. Mean cpm±SEM were calculated from triplicate wells. The stimulation index (SI) was obtained by dividing cpm from antigen-stimulated wells by cpm from wells with no antigen. SI in cultures stimulated with GST alone was subtracted from the SI induced with GST-BV8S2 protein.
Proliferation assay. Proliferation responses of splenic T cells were determined essentially as described in Example II, except that antigen was used at an optimal concentration of 50 μg/ml.

[2] = tested on: draining lymph node (LN) cells; test: MOG 35-55 stimulated proliferation of draining lymph node cells; format: in vivo; conditions: WT and cytokine deficient mice, 2.5 mg pellet
Experimental: Proliferation assay. Proliferation assays were performed on draining lymph node (DLN) and spleen (SP) cells essentially as described in Examples I and II, using MOG 35-55 as the test antigen. […] Proliferation of draining lymph node (LN) cells from either untreated or E2 treated mice was measured to determine if E2 could alter the ability of T lymphocytes to recognize and respond to the immunizing antigen. LN cells were isolated from three representative mice for each group and the cells pooled prior to stimulation with MOG 35-55 for 72 hr.

Lymph node CD3+ T cells = test: FACS of chemokine receptors on lymph node CD3+ T cells; format: in vivo, mice; conditions: 0.36 mg pellet
Experimental: Flow cytometry. Lymph node cells from sham and 17β-estradiol treated animals with EAE were washed with PBS/2% FCS/0.2% NaN3 and first incubated on ice for 30 min with Fcγ III/II receptor blocking monoclonal antibody (PharMingen), then stained with PE-conjugated anti-CD3 (PharMingen). After 20 min of incubation with anti-CD3, the cells were fixed and permablized using Cytofix/Cytoperm (PharMingen). Subsequently, cells were incubated with anti-CCR1, anti-CCR2, anti-CCR3, anti-CCR4 and anti-CCR5 goat anti-mouse polyclonal antibodies (Santa Cruz Biotechnology Inc.; USA) for 30 min on ice. After washing, cells were stained with FITC-conjugated anti-goat monoclonal antibodies (Sigma) for an additional 30 min on ice. Cells were analyzed using a FACS-Scan (Becton Dickinson). Propidium iodide and forward/side scatter gating were used to exclude dead cells.

male SJL mice = test: EAE induced with PLP 139-151 in male SJL mice; format: in vivo
IFN-γ KO mice = test: EAE induced with MOG 35-55 in IFN-γ KO mice (clinical, histopathology); format: in vivo; conditions: 2.5 mg pellet
Experimental: Estrogen treatment. Sixty-day release pellets containing 2.5 mg of 17β-estradiol (E2) or vehicle were implanted subcutaneously (s.c) in the scapular region behind the neck using a 12-gauge trochar as described by the manufacturer (Innovative Research of America, Sarasota, Fla.). The mice were implanted one week prior to immunization with MOG 35-55. The concentration of E2 expected in the serum is between 1,500-2,000 pg/ml, which is approximately 5 times less than the levels found during pregnancy.
Induction of EAE. C57BL/6 and cytokine deficient mice were inoculated s.c in the flanks with 0.2 ml of an emulsion containing 200 μg of MOG 35-55 in saline and an equal volume of complete Freund's Adjuvant (CFA) containing 400 μg of Mycobacterium tuberculosis H37RA (Difco Laboratories, Detroit, Mich.). Disease induction required i.v. administration of pertussis toxin on the day of immunization (25 ng/mouse) and 2 days later (67 ng/mouse). The mice were assessed daily for clinical signs of EAE according to the 7 point scale described in Example I.
Histopathology. Histopathologic assessment of spinal column section was performed essentially as described in Example I, except that sections were stained with either luxol fast blue-periodic acid schiff-hematoxylin or silver nitrate prior to analysis.
Statistical analysis. Significant differences in incidence and mortality between untreated and E2 treated mice were assessed by Chi-square analysis. Difference in onset was determined using the two-tailed Student t test. Differences in peak score and cumulative disease index (CDI) were assessed by the Mann-Whitney test. Statistical significance of the frequency of cytokine secreting cells was analyzed using Student's t test for comparisons of two means. Differences in the expression of chemokine and cytokine mRNA were also determined using the Student t test. Values of p<0.05 were considered significant.

female SJL mice = test: EAE induced with PLP 139-151 in female SJL mice (clinical scores, spinal cord histopathology); format: in vivo; conditions: for Demyelinated foci/section / Inflammatory foci/section: spinal cord at peak of disease

**Q.** Which “serum 17β-estradiol” value ([1]; OVX Tg mice) does the source give for `C[C@]12CC[C@@H]3c4ccc(O)cc4CC[C@H]3[C@@H]1CC[C@@H]2O` [17β-estradiol] here?
**A.** 100 to 200 pg/mL

**Q.** And the “serum 17β-estradiol” value ([1]; OVX Tg mice, listed as E2)?
**A.** 150 to 200 pg/mL

**Q.** And the “serum 17β-estradiol” value ([1]; intact Tg mice (pellet plus native hormone))?
**A.** 150 to 400 pg/mL

**Q.** And the “serum 17β-estradiol” value ([1]; intact Tg mice (pellet plus native hormone), listed as E2)?
**A.** 200 to 400 pg/mL

**Q.** And the “inhibition of proliferation of MBP-Ac1-11 specific T cells” value (splenic T cells)?
**A.** about 47%

**Q.** And the “LN proliferation response to MOG 35-55” value [2]?
**A.** no effect

**Q.** What about the “CCR2 staining of lymph node CD3+ T cells” value (Lymph node CD3+ T cells) of the same molecule?
**A.** No difference

**Q.** And the “percentage of CCR5 positive lymph node CD3+ T cells” value (Lymph node CD3+ T cells; sham 35+4, p=0.03, in %)?
**A.** 27+2

**Q.** What about the “percentage of CCR1 positive lymph node CD3+ T cells” value (Lymph node CD3+ T cells; sham 91+6%, p=0.02) of the same molecule?
**A.** 77+2%

**Q.** And the CDI (male SJL mice; 0.36 mg/pellet)?
**A.** 6.4 ± 5.1

**Q.** What about the Incidence (male SJL mice; 0.36 mg/pellet) of the same molecule?
**A.** 3/4

**Q.** What about the “Incidence (%)” value (male SJL mice; 0.36 mg/pellet) of the same molecule?
**A.** 75%

**Q.** What about the Onset (male SJL mice; 0.36 mg/pellet) of the same molecule?
**A.** 15.3 ± 3.2 days

**Q.** What about the “Peak (disease score)” value (male SJL mice; 0.36 mg/pellet) of the same molecule?
**A.** 2.1 ± 2.4

**Q.** What about the Incidence (male SJL mice; 2.5 mg/pellet) of the same molecule?
**A.** 0/4

**Q.** What about the “Incidence (%)” value (male SJL mice; 2.5 mg/pellet) of the same molecule?
**A.** 0%

**Q.** And the “Inflammatory foci/section” value (IFN-γ KO mice; IFN-γKO, spinal cord)?
**A.** 0.0 ± 0.0 Foci/Section

**Q.** What about the CDI (IFN-γ KO mice; IFNγ KO) of the same molecule?
**A.** 19.3 ± 15.9

**Q.** What about the Incidence (IFN-γ KO mice; IFNγ KO) of the same molecule?
**A.** 8/10

**Q.** What about the Mortality (IFN-γ KO mice; IFNγ KO) of the same molecule?
**A.** 1/10

**Q.** And the Onset (IFN-γ KO mice; IFNγ KO)?
**A.** 21.8 ± 2.7

**Q.** And the “Peak Score” value (IFN-γ KO mice; IFNγ KO)?
**A.** 4.5 ± 1.2

**Q.** What about the “CDI (cumulative disease index)” value (female SJL mice; 0.025 mg/pellet (diestrus)) of the same molecule?
**A.** 19.2 ± 10.0

**Q.** What about the Incidence (female SJL mice; 0.025 mg/pellet (diestrus)) of the same molecule?
**A.** 15/18

**Q.** What about the “Incidence (%)” value (female SJL mice; 0.025 mg/pellet (diestrus)) of the same molecule?
**A.** (83%)

**Q.** What about the Onset (female SJL mice; 0.025 mg/pellet (diestrus)) of the same molecule?
**A.** 15.8 ± 3.5 days

**Q.** And the “Peak (disease score)” value (female SJL mice; 0.025 mg/pellet (diestrus))?
**A.** 3.6 ± 1.3

**Q.** What about the Relapse (female SJL mice; 0.025 mg/pellet (diestrus)) of the same molecule?
**A.** 5/9

**Q.** And the “Relapse (%)” value (female SJL mice; 0.025 mg/pellet (diestrus))?
**A.** (56%)

**Q.** What about the “CDI (cumulative disease index)” value (female SJL mice; 0.1 mg/pellet (diestrus)) of the same molecule?
**A.** 8.9 ± 3.4

**Q.** And the Incidence (female SJL mice; 0.1 mg/pellet (diestrus))?
**A.** 12/19

**Q.** And the “Incidence (%)” value (female SJL mice; 0.1 mg/pellet (diestrus))?
**A.** (63%)

**Q.** What about the Onset (female SJL mice; 0.1 mg/pellet (diestrus)) of the same molecule?
**A.** 14.5 ± 2.0 days

**Q.** What about the “Peak (disease score)” value (female SJL mice; 0.1 mg/pellet (diestrus)) of the same molecule?
**A.** 2.0 ± 0.9

**Q.** What about the Relapse (female SJL mice; 0.1 mg/pellet (diestrus)) of the same molecule?
**A.** 2/9

**Q.** And the “Relapse (%)” value (female SJL mice; 0.1 mg/pellet (diestrus))?
**A.** (22%)

**Q.** What about the Demyelinated foci/section (female SJL mice; 0.36 mg pellet) of the same molecule?
**A.** 0.5 ± 0.3 foci/section

**Q.** And the Inflammatory foci/section (female SJL mice; 0.36 mg pellet)?
**A.** 1.3 ± 0.8 foci/section

**Q.** What about the “CDI (cumulative disease index)” value (female SJL mice; 0.36 mg/pellet (estrus)) of the same molecule?
**A.** 9.8 ± 1.9

**Q.** What about the Incidence (female SJL mice; 0.36 mg/pellet (estrus)) of the same molecule?
**A.** 15/19

**Q.** What about the “Incidence (%)” value (female SJL mice; 0.36 mg/pellet (estrus)) of the same molecule?
**A.** (79%)

**Q.** What about the Onset (female SJL mice; 0.36 mg/pellet (estrus)) of the same molecule?
**A.** 15.1 ± 1.3 days

**Q.** What about the “Peak (disease score)” value (female SJL mice; 0.36 mg/pellet (estrus)) of the same molecule?
**A.** 2.5 ± 0.6

**Q.** And the Relapse (female SJL mice; 0.36 mg/pellet (estrus))?
**A.** 2/9

**Q.** What about the “Relapse (%)” value (female SJL mice; 0.36 mg/pellet (estrus)) of the same molecule?
**A.** (22%)

**Q.** What about the Demyelinated foci/section (female SJL mice; 2.5 mg pellet) of the same molecule?
**A.** 0.5 ± 0.4 foci/section

**Q.** What about the Inflammatory foci/section (female SJL mice; 2.5 mg pellet) of the same molecule?
**A.** 0.6 ± 0.8 foci/section

**Q.** And the “CDI (cumulative disease index)” value (female SJL mice; 2.5 mg/pellet (pregnancy))?
**A.** 7.5 ± 7.9

**Q.** What about the Incidence (female SJL mice; 2.5 mg/pellet (pregnancy)) of the same molecule?
**A.** 4/10

**Q.** What about the “Incidence (%)” value (female SJL mice; 2.5 mg/pellet (pregnancy)) of the same molecule?
**A.** (40%)

**Q.** And the Onset (female SJL mice; 2.5 mg/pellet (pregnancy))?
**A.** 13.8 ± 0.5 days

**Q.** What about the “Peak (disease score)” value (female SJL mice; 2.5 mg/pellet (pregnancy)) of the same molecule?
**A.** 2.0 ± 2.1

**Q.** And the Relapse (female SJL mice; 2.5 mg/pellet (pregnancy))?
**A.** 0/4

**Q.** And the “Relapse (%)” value (female SJL mice; 2.5 mg/pellet (pregnancy))?
**A.** (0%)

**Q.** What about the “comparison of E2 and E3 in incidence or severity of EAE” value (female SJL mice; Fisher exact test, same animal model) of the same molecule?
**A.** equally protective
